# Source: patent US20200270309A1, “MALEIMIDE GROUP-MODIFIED ANGIOGENESIS INHIBITOR HM-1 AND USE THEREOF” (NANJING ANJI BIOLOGICAL TECHNOLOGY CO., LTD, priority 2017, published 2020)
# Marks after values point to notes of the source that are not given here. Peptide text beside a SMILES is read from it. * marks the point of attachment. X65 = O=C1C=CC(=O)N1c1cccc(CCCCCCCCCCCCC(=O)*)c1; X72 = O=C1C=CC(=O)N1c1ccccc1CCCCCCCCCCC(=O)*; X79 = O=C1C=CC(=O)N1c1cccc(CCC(=O)*)c1
# Assays:
# adjuvant arthritis = experiment: Rat adjuvant arthritis (AA) animal model; format: in vivo, SD rats; conditions: 4.0 mg/kg; for Clinical score: intravenous in the tail once every five days from day 10, four paws scored 0-4, max 16, mean±SD; for Joint swelling degree / Left and right paw swelling degree: intravenous in the tail once every five days from day 10, mean±SD
# [1] = test system: choroidal neovascularization; experiment: Choroidal neovascularization in rats (laser photocoagulation, FFA); format: in vivo; conditions: BN rats
# Summary of the method: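 Male BN rats aged 6-8 weeks were given 8 krypton-laser spots around the optic disc (647.1 nm, 350 mW, 50 μm, 0.05 s). Once the model was confirmed, groups of 5 got daily intravitreal compound at 0.05 μM or saline for 1 week. FFA followed at 3, 7, 14 and 28 days after dosing.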
# [2] = test system: retinal neovascularization (OIR model); experiment: Retinal vessels in OIR mice; format: in vivo, C57/B16 mice; conditions: for Area of neovascular plexus (mm^2): dose 0.05 μM in the vitreous chamber on day 13, retinal vessels evaluated on day 17; for Inhibition rate (%): dose 0.05 μM in the vitreous chamber on day 13, retinal vessels evaluated on day 17, vs negative control
# Summary of the method: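 C57/B16 pups were held in 75% oxygen from postnatal day 7 to 12, then returned to room air. On day 13 they received intravitreal saline or compound. On day 17 perfused vessels were labelled by Texas red tomato agglutinin injected into the left ventricle (5 min circulation) and retinal vasculature assessed.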
# [3] = Half-lives and pharmacokinetic parameters of polypeptides vs HM-1; conditions: in vivo; for half-life: T1/2β (half-life)
# splenic lymphocytes = experiment: Proliferation of splenic lymphocytes in mice (ConA, MTT); format: cell-based; conditions: ConA-stimulated mouse splenic lymphocytes, 48 h
# Summary of the method: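 Proliferation read as OD 570 nm after 4 h MTT and DMSO solubilisation, five parallel wells. Before that, ConA-stimulated splenic lymphocytes from mice, 5×10^6 cells/mL in 10% calf serum RPMI 1640, were cultured 48 h at 37° C. with different peptide concentrations; controls were blank, ConA alone and dexamethasone.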
# [4] = test system: carrageenan-induced toe swelling; experiment: Carrageenan-induced toe swelling in rats; format: in vivo; conditions: SD rats; for Swelling degree 1 h: 1 h after carrageenan; for Swelling degree 3 h: 3 h after carrageenan; for Swelling degree 5 h: 5 h after carrageenan; for Swelling degree 7 h: 7 h after carrageenan
# Summary of the method: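 Paw swelling, in mL, is the post-inflammation minus pre-inflammation volume of the right hind foot, read as overflow liquid when immersed to a pen-marked joint. Treatment was daily injection over 3 d; model group received saline of the same volume.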
# [5] = day 3 after administration, total light spot number was 297, 0.05 μM in the vitreous chamber once a day for 1 week
# [6] = day 7 after administration, total light spot number was 186, 0.05 μM in the vitreous chamber once a day for 1 week
# [7] = day 14 after administration, total light spot number was 137, 0.05 μM in the vitreous chamber once a day for 1 week
# [8] = day 28 after administration, total light spot number was 69, 0.05 μM in the vitreous chamber once a day for 1 week
AUC(0-inf) [3] [ng·h/mL],MRT inf [3] [h],clearance [3] [mL/min/kg],half-life [3] [h],SMILES,Clinical score (adjuvant arthritis),Joint swelling degree (adjuvant arthritis) [mm],Left and right paw swelling degree (adjuvant arthritis) [mm],"CNV Incidence (%) [1, 5] [%]","Leakage Light spot number [1, 5]","CNV Incidence (%) [1, 6] [%]","Leakage Light spot number [1, 6]","CNV Incidence (%) [1, 7] [%]","Leakage Light spot number [1, 7]","CNV Incidence (%) [1, 8] [%]","Leakage Light spot number [1, 8]",Area of neovascular plexus (mm^2) [2] [mm^2],Inhibition rate (%) [2] [%**],A570 nm/A630 nm (splenic lymphocytes; polypeptide dose 0.05 μM),Inhibition rate (%) (splenic lymphocytes; polypeptide dose 0.05 μM),A570 nm/A630 nm (splenic lymphocytes; polypeptide dose 0.1 μM),also measured
34600 ± 8340,62 ± 9.63,0.482,42.95 ± 0.36,C[C@H](NC(=O)CNC(=O)[C@H](CCCNC(=N)N)NC(=O)CCc1cccc(N2C(=O)C=CC2=O)c1)C(=O)N[C@@H](CC(=O)O)C(=O)N[C@@H](CCCNC(=N)N)C(=O)N[C@@H](C)C(=O)NCC(=O)NCC(=O)NCC(=O)NCC(=O)N[C@@H](CCCNC(=N)N)C(=O)NCC(=O)N[C@@H](CC(=O)O)C(=O)O [X26] (X79-RGADRAGGGGRGD-OH),5.65 ± 1.07,0.74 ± 0.18,3.81 ± 0.59,55.22,164,49.46,92,45.26,62,43.48,30,0.104 ± 0.001,50.94,0.5714 ± 0.1002,15.46,0.5365 ± 0.0543,Inhibition rate (%) (splenic lymphocytes; polypeptide dose 0.1 μM): 20.57%; A570 nm/A630 nm (splenic lymphocytes; polypeptide dose 0.2 μM): 0.4991 ± 0.0743; Inhibition rate (%) (splenic lymphocytes; polypeptide dose 0.2 μM): 26.10%; Swelling degree 1 h ([4]; 2.0 mg/kg once a day for 3 d): 0.28 ± 0.17 mg; Swelling degree 3 h ([4]; 2.0 mg/kg once a day for 3 d): 0.31 ± 0.18 mg; Swelling degree 5 h ([4]; 2.0 mg/kg once a day for 3 d): 0.42 ± 0.11 mg; Swelling degree 7 h ([4]; 2.0 mg/kg once a day for 3 d): 0.39 ± 0.12 mg; Swelling degree 1 h ([4]; 4.0 mg/kg once a day for 3 d): 0.25 ± 0.18 mg; Swelling degree 3 h ([4]; 4.0 mg/kg once a day for 3 d): 0.31 ± 0.13 mg; Swelling degree 5 h ([4]; 4.0 mg/kg once a day for 3 d): 0.40 ± 0.15 mg; Swelling degree 7 h ([4]; 4.0 mg/kg once a day for 3 d): 0.30 ± 0.16 mg
28200 ± 8090,50.4 ± 10.1,0.592,34.9 ± 0.27,C[C@H](NC(=O)CNC(=O)[C@H](CCCNC(=N)N)NC(=O)CCCCCCCCCCCCc1cccc(N2C(=O)C=CC2=O)c1)C(=O)N[C@@H](CC(=O)O)C(=O)N[C@@H](CCCNC(=N)N)C(=O)N[C@@H](C)C(=O)NCC(=O)NCC(=O)NCC(=O)NCC(=O)N[C@@H](CCCNC(=N)N)C(=O)NCC(=O)N[C@@H](CC(=O)O)C(=O)O [X36] (X65-RGADRAGGGGRGD-OH),5.71 ± 1.09,0.81 ± 0.12,4.00 ± 0.44,50.51,150,49.46,92,40.15,55,43.48,30,0.084 ± 0.009,60.38,0.6051 ± 0.0633,10.41,0.4566 ± 0.1223,Inhibition rate (%) (splenic lymphocytes; polypeptide dose 0.1 μM): 32.40%; A570 nm/A630 nm (splenic lymphocytes; polypeptide dose 0.2 μM): 0.4401 ± 0.051; Inhibition rate (%) (splenic lymphocytes; polypeptide dose 0.2 μM): 34.84%; Swelling degree 1 h ([4]; 2.0 mg/kg once a day for 3 d): 0.29 ± 0.17 mg; Swelling degree 3 h ([4]; 2.0 mg/kg once a day for 3 d): 0.34 ± 0.18 mg; Swelling degree 5 h ([4]; 2.0 mg/kg once a day for 3 d): 0.43 ± 0.13 mg; Swelling degree 7 h ([4]; 2.0 mg/kg once a day for 3 d): 0.32 ± 0.15 mg; Swelling degree 1 h ([4]; 4.0 mg/kg once a day for 3 d): 0.23 ± 0.15 mg; Swelling degree 3 h ([4]; 4.0 mg/kg once a day for 3 d): 0.33 ± 0.13 mg; Swelling degree 5 h ([4]; 4.0 mg/kg once a day for 3 d): 0.35 ± 0.12 mg; Swelling degree 7 h ([4]; 4.0 mg/kg once a day for 3 d): 0.32 ± 0.17 mg
28200 ± 7980,50.5 ± 13.6,0.59,35.03 ± 0.27,C[C@H](NC(=O)CNC(=O)[C@H](CCCNC(=N)N)NC(=O)CCCCCCCCCCc1ccccc1N1C(=O)C=CC1=O)C(=O)N[C@@H](CC(=O)O)C(=O)N[C@@H](CCCNC(=N)N)C(=O)N[C@@H](C)C(=O)NCC(=O)NCC(=O)NCC(=O)NCC(=O)N[C@@H](CCCNC(=N)N)C(=O)NCC(=O)N[C@@H](CC(=O)O)C(=O)O [X22] (X72-RGADRAGGGGRGD-OH),5.67 ± 1.12,0.83 ± 0.14,3.92 ± 0.18,53.87,160,47.85,89,43.80,60,37.68,26,0.082 ± 0.005,61.32,0.5694 ± 0.0561,15.69,0.4603 ± 0.0873,Inhibition rate (%) (splenic lymphocytes; polypeptide dose 0.1 μM): 31.85%; A570 nm/A630 nm (splenic lymphocytes; polypeptide dose 0.2 μM): 0.4521 ± 0.1194; Inhibition rate (%) (splenic lymphocytes; polypeptide dose 0.2 μM): 33.06%; Swelling degree 1 h ([4]; 2.0 mg/kg once a day for 3 d): 0.24 ± 0.13 mg; Swelling degree 3 h ([4]; 2.0 mg/kg once a day for 3 d): 0.31 ± 0.15 mg; Swelling degree 5 h ([4]; 2.0 mg/kg once a day for 3 d): 0.42 ± 0.14 mg; Swelling degree 7 h ([4]; 2.0 mg/kg once a day for 3 d): 0.38 ± 0.18 mg; Swelling degree 1 h ([4]; 4.0 mg/kg once a day for 3 d): 0.23 ± 0.11 mg; Swelling degree 3 h ([4]; 4.0 mg/kg once a day for 3 d): 0.31 ± 0.16 mg; Swelling degree 5 h ([4]; 4.0 mg/kg once a day for 3 d): 0.36 ± 0.13 mg; Swelling degree 7 h ([4]; 4.0 mg/kg once a day for 3 d): 0.37 ± 0.13 mg
